According to patent US20190053492A1, “SUBSTITUTED PYRIDINE COMPOUNDS AS PESTICIDES” (Bayer CropScience Aktiengesellschaft, priority 2016, published 2019):
Where two headings read alike, the source gives them in different places.

Key:
[1] = log P by HPLC on reversed-phase column (C 18), EEC Directive 79/831 Annex V.A8; format: physicochemical; details: 55° C.; for LOGP_HCOOH: log P (HCOOH); for chromatographic logP: reversed-phase HPLC column (C 18)
Experimental: Temperature: 55° C. […] Called log P (HCOOH) in the table. […] Called log P (neutral) in the table.

Phaedon cochleariae = Phaedon cochleariae spray test; format: in vivo; details: after 7 days, Chinese cabbage leaf discs
Experimental: Phaedon cochleariae—Spray Test
Solvent: 78.0 parts by weight of acetone • • 1.5 parts by weight of dimethylformamide
Emulsifier: alkylaryl polyglycol ether
To produce a suitable active ingredient formulation, 1 part by weight of active ingredient is dissolved with the specified parts by weight of solvent and made up with water containing an emulsifier concentration of 1000 ppm until the desired concentration is attained. To produce further test concentrations, the formulation is diluted with emulsifier-containing water.
Discs of Chinese cabbage leaves (Brassica pekinensis) are sprayed with an active ingredient formulation of the desired concentration and, after drying, populated with larvae of the mustard beetle (Phaedon cochleariae).
After 7 days, the efficacy in % is determined. 100% means that all the beetle larvae have been killed; 0% means that no beetle larvae have been killed.

Spodoptera frugiperda = Spodoptera frugiperda spray test; format: in vivo; details: after 7 days, maize leaf discs
Outline: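 Efficacy in % was scored at 7 days against armyworm caterpillars placed on dried, compound-sprayed Zea mays leaf discs. Compound was dissolved in acetone/dimethylformamide and diluted in water with 1000 ppm alkylaryl polyglycol ether. 100% means all caterpillars were killed.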

[2] = acidic range at pH 2.7, 0.1% aqueous formic acid and acetonitrile, HPLC on reversed-phase column (C 18)
[3] = log P, neutral range, HPLC on reversed-phase column (C 18)
[4] = acidic range pH 2.7, 0.1% aqueous formic acid and acetonitrile, reversed-phase column (C 18)
[5] = log P (neutral), HPLC reversed-phase column (C 18)

Row | Structure (SMILES) | LOGP_HCOOH [1, 2] | LOGP_NEUTRAL [1, 3] | efficacy (beetle larvae killed) (Phaedon cochleariae; application rate 100 g/ha) [%] | efficacy (beetle larvae killed) (Phaedon cochleariae; application rate 500 g/ha) [%] | efficacy (caterpillars killed) (Spodoptera frugiperda; application rate 100 g/ha) [%] | efficacy (caterpillars killed) (Spodoptera frugiperda; application rate 500 g/ha) [%] | LOGP_HCOOH [1, 4] | chromatographic logP ([1]; pH 2.7, log P (HCOOH), acidic range pH 2.7, 0.1% aqueous formic acid and acetonitrile, reversed-phase column (C 18), read-out: LOGP_HCOOH) | chromatographic logP ([1]; pH 7.8, LC-MS neutral range, pH 7.8, ammonium hydrogencarbonate/acetonitrile, read-out: log P (neutral)) | pest or weed control at 500 g/ha (Phaedon cochleariae; Phaedon cochleariae, foliar, 168 h, application rate 500 g/ha, read-out: efficacy (beetle larvae killed)) [%] | pest or weed control at 500 g/ha (Spodoptera frugiperda; Spodoptera frugiperda, foliar, 168 h, application rate 500 g/ha, read-out: efficacy (caterpillars killed)) [%] | LOGP_NEUTRAL [1, 5]
1 | CC(NC(=O)c1cc(-c2ccc(OC(F)(F)F)cc2)cc(NC(=O)C2CC2)n1)c1ccc(C#N)cc1 (racemic) [Example I-158] | 4.17 | 4.02 | 83 | 100 | 100 | 100 |  |  |  |  |  | 
2 | O=C(NCc1ccccn1)c1cc(-c2ccc(C(F)(F)F)cc2)cc(NC(=O)C2CC2)n1 [Example I-007] |  | 2.75 |  | 100 |  | 83 | 3.19 |  |  |  |  | 
3 | O=C(NCC(F)(F)F)c1cc(-c2ccc(C(F)(F)F)cc2)cc(NC(=O)C2CC2)n1 [Example I-009] |  | 3.77 |  | 100 |  | 100 | 3.82 |  |  |  |  | 
4 | O=C(NCc1ccc(Cl)nc1)c1cc(-c2ccc(C(F)(F)F)cc2)cc(NC(=O)C2CC2)n1 [Example I-011] |  | 3.55 | 100 | 100 |  | 100 | 3.67 |  |  |  |  | 
5 | O=C(NCC1CC1)c1cc(-c2ccc(C(F)(F)F)cc2)cc(NC(=O)C2CC2)n1 [Example I-012] |  | 3.66 | 100 | 100 |  | 100 | 3.78 |  |  |  |  | 
6 | CCNC(=O)c1cc(-c2ccc(C(F)(F)F)cc2)cc(NC(=O)C2CC2)n1 [Example I-016] |  | 3.23 |  | 83 |  | 100 | 3.30 |  |  |  |  | 
7 | CC(C)NC(=O)c1cc(-c2ccc(C(F)(F)F)cc2)cc(NC(=O)C2CC2)n1 [Example I-018] |  | 3.68 |  | 100 | 83 | 100 | 2.65 |  |  |  |  | 
8 | N#Cc1ccc(NC(=O)c2cc(-c3ccc(C(F)(F)F)cc3)cc(NC(=O)C3CC3)n2)cc1 [Example I-019] |  | 4.33 |  | 100 |  | 100 | 4.40 |  |  |  |  | 
9 | N#Cc1ccc(CNC(=O)c2cc(-c3ccc(Cl)cc3)cc(NC(=O)C3CC3)n2)cc1 [Example I-020, 4-(4-Chlorophenyl)-N-(4-cyanobenzyl)-6-[(cyclopropylcarbonyl)amino]pyridine-2-carboxamide] |  | 3.54 |  |  |  |  |  | 3.6 | 3.54 | 100 | 100 | 
10 | N#Cc1ccc(NC(=O)c2cc(-c3ccc(Cl)cc3)cc(NC(=O)C3CC3)n2)cc1 [Example I-022] |  | 4.29 | 83 | 100 | 100 | 100 | 4.34 |  |  |  |  | 
11 | CC(NC(=O)c1cc(-c2ccc(C(F)(F)F)cc2)cc(NC(=O)C2CC2)n1)C1CC1 (stereo not drawn) [Example I-031] |  | 4.06 |  | 100 |  | 100 | 4.17 |  |  |  |  | 
12 | O=C(NC1CC1)c1cc(-c2ccc(I)cc2)cc(NC(=O)C2CC2)n1 [Example I-035] |  | 3.39 |  | 100 |  | 100 | 3.48 |  |  |  |  | 
13 | CCCCNC(=O)c1cc(-c2ccc(C(F)(F)F)cc2)cc(NC(=O)C2CC2)n1 [Example I-037] |  | 3.98 |  | 83 | 83 | 100 | 4.05 |  |  |  |  | 
14 | CC(NC(=O)c1cc(-c2ccc(C(F)(F)F)cc2)cc(N(C(=O)C2CC2)C(=O)C2CC2)n1)c1ccc(C#N)cc1 (stereo not drawn) [Example I-039] |  | 4.31 | 100 | 100 | 100 | 100 | 4.36 |  |  |  |  | 
15 | N#Cc1ccc(CNC(=O)c2cc(-c3ccc(C(F)(F)F)cc3)cc(NC(=O)C3CC3)n2)cn1 [Example I-042] |  | 3.26 | 100 | 100 | 83 | 100 | 3.36 |  |  |  |  | 
16 | N#Cc1ccc(CNC(=O)c2cc(-c3ccc(C(F)(F)F)cc3)cc(NC(=O)C3CCC3)n2)cc1 [Example I-045] |  | 3.99 | 100 | 83 |  | 100 | 4.14 |  |  |  |  | 
17 | N#Cc1ccc(CNC(=O)c2cc(-c3ccc(C(F)(F)F)cc3)cc(NC(=O)CC3CC3)n2)cc1 [Example I-055] |  | 3.82 |  | 100 | 100 | 100 | 3.92 |  |  |  |  | 
18 | O=C(NCc1ccc(Cl)c(F)c1)c1cc(-c2ccc(C(F)(F)F)cc2)cc(NC(=O)C2CC2)n1 [Example I-056] |  | 4.44 |  | 100 | 100 | 100 | 4.57 |  |  |  |  | 
19 | CC(NC(=O)c1cc(-c2ccc(C(F)(F)F)cc2)cc(NC(=O)C2CC2)n1)c1ccc(C(F)(F)F)cc1 (stereo not drawn) [Example I-057] |  | 4.77 |  | 83 |  | 100 | 4.91 |  |  |  |  | 
20 | C[C@H](NC(=O)c1cc(-c2ccc(C(F)(F)F)cc2)cc(NC(=O)C2CC2)n1)c1ccc(C(F)(F)F)cc1 [Example I-060] |  | 4.82 |  | 100 | 83 | 100 | 4.89 |  |  |  |  | 
21 | C[C@H](NC(=O)c1cc(-c2ccc(OC(F)(F)F)cc2)cc(NC(=O)C2CC2)n1)c1ccc(C(F)(F)F)cc1 [Example I-061] |  | 4.89 |  | 100 | 100 | 100 | 5.01 |  |  |  |  | 
22 | O=C(NCc1ccc(C(F)(F)F)c(F)c1)c1cc(-c2ccc(C(F)(F)F)cc2)cc(NC(=O)C2CC2)n1 [Example I-064] |  | 4.53 |  | 100 | 100 | 100 | 4.68 |  |  |  |  | 
23 | O=C(NCc1ccc(Cl)cc1F)c1cc(-c2ccc(C(F)(F)F)cc2)cc(NC(=O)C2CC2)n1 [Example I-066] |  | 4.53 |  | 100 |  | 100 | 4.63 |  |  |  |  | 
24 | O=C(NCc1ccc(Cl)cc1F)c1cc(-c2ccc(OC(F)(F)F)cc2)cc(NC(=O)C2CC2)n1 [Example I-067] |  | 4.60 |  | 100 | 100 | 100 | 4.78 |  |  |  |  | 
25 | N#Cc1cc(F)c(CNC(=O)c2cc(-c3ccc(C(F)(F)F)cc3)cc(NC(=O)C3CC3)n2)c(F)c1 [Example I-068] |  | 3.87 | 100 | 100 | 100 | 100 | 4.00 |  |  |  |  | 
26 | N#Cc1ccc(CNC(=O)c2cc(-c3ccc(OC(F)(F)F)c(Cl)c3)cc(NC(=O)C3CC3)n2)cc1 [Example I-230] | 4.32 | 4.24 | 83 |  |  |  |  |  |  |  |  | 
27 | CONC(=O)c1cc(-c2ccc(OC(F)(F)F)cc2)cc(NC(=O)C2CC2)n1 [Example I-234] |  |  |  | 100 |  |  | 2.97 |  |  |  |  | 2.89
28 | O=C(NOCC1CC1)c1cc(-c2ccc(OC(F)(F)F)cc2)cc(NC(=O)C2CC2)n1 [Example I-236] |  |  |  | 100 |  |  | 3.59 |  |  |  |  | 3.50
29 | N#CCCCONC(=O)c1cc(-c2ccc(OC(F)(F)F)cc2)cc(NC(=O)C2CC2)n1 [Example I-238] |  |  |  | 83 |  |  | 3.13 |  |  |  |  | 
30 | N#Cc1ccc(CNC(=O)c2cc(-c3ccc(C(F)(F)C(F)(F)F)c(F)c3F)cc(NC(=O)C3CC3)n2)cc1 [Example I-272] |  |  |  | 83 |  |  | 4.17 |  |  |  |  | 
